Measurements from ChEMBL document CHEMBL3430912, “GSK Tres Cantos Anti-Kinetoplastid Screening (TCAKS) Data”.

How the values were obtained:
[1] = GSK_TCAKS: pIC50 HepG2 human cell line viability assay using luminiscence. […] Seeding density was checked to ensure that new mono-layers were not more than 50% confluent at the time of harvesting. Cell suspension was added to 500 mL of the same medium at a final density of 1.2 * 10^5 cells/mL. This cell suspension was dispensed (25 uL, 3000 cells per well) into 384-well clear-bottom plates using a Multidrop Combi dispenser. Prior to addition of the cell suspension, the screening compounds (250 nL) were pre-dispensed into the plates with an Echo liquid handler. Plates were incubated for 48 h at 37C, 5% CO2. After incubation, plates equilibrated at room temperature for 30 min before proceeding to develop the luminescent signal. The signal developer, CellTiter-Glo Reagent, was allowed to equilibrate at room temperature for 30 min and added to the plates (25uL per well) using a Multidrop Combi dispenser. Plates were left for 10 min at room temperature for stabilization and then read using a ViewLux.; assay type: toxicity, cell-based
[2] = target: Sterol 14-alpha demethylase (Trypanosoma cruzi (strain CL Brener), UniProt Q7Z1V1); assay: GSK_TCAKS: pIC50 CYP51 from Trypanosoma cruzi.; assay type: functional
Leishmania donovani [3] = assay: (§1) GSK_TCAKS: pIC50 Leishmania donovani Imaging: Infected Macrophages. Assay plates (384-well) were prepared by adding 250nL of compound to each well. For single shot assay, the final compound concentration was 5 uM. […] Automated image analysis was performed with a script developed on Acapella High Content Imaging and Analysis Software (PerkinElmer). Output: Percent of infected macrophage cells were reported for each well.; assay type: functional, organism-based, Homo sapiens; conditions: THP-1
Trypanosoma cruzi [4] = assay: (§2) GSK_TCAKS: pIC50 Trypanosoma cruzi Imaging: Infected Cells. […] Cells were then washed once with PBS before infection. T. cruzi trypomastigotes, collected at days 5 to 8 after infection from LLC-MK2 parasite infected cultures, were allowed to swim out for 4h at 37C from a centrifuged pellet (2,500 rpm/10 min/room temperature). Trypomastigotes were then collected and counted in a CASY Cell Counter. Trypomastigotes, in supplemented DMEM, were added to H9c2 cultures in a multiplicity of infection of 1 and incubated for 18 h. Cells were washed once with PBS before incubation of the infected H9c2 monolayer with trypsin (Life-Technologies) to detach cells from the flask. Cells were counted in a CASY Cell Counter using a 150 um capillary and their density set at 5 * 10^4 cells per mL in supplemented assay DMEM. Infected H9c2 were dispensed into 384-well poly-lysine coated assay plates at 50uL per well using a Multidrop Combi dispenser. After seeding them, the plates were incubated at 37C, 5% CO2 for 72h. Cultures were then fixed and stained by addition of 50 uL of a solution containing 8% formaldehyde and 4 uM DRAQ5 DNA dye (BioStatus, UK) per well. […] Five images were collected per well for reliable statistical analysis. Automated image analysis was performed with a script developed on Acapella High Content Imaging and Analysis Software (PerkinElmer). Output: percentage of infected cells per well as a second infection marker.; assay type: functional, organism-based, Rattus norvegicus; conditions: H9c2, 4 h
Trypanosoma cruzi [5] = assay: GSK_TCAKS: pIC50 Trypanosoma cruzi Imaging: Amastigotes/Cell. […] Cells were then washed once with PBS before infection. T. cruzi trypomastigotes, collected at days 5 to 8 after infection from LLC-MK2 parasite infected cultures, were allowed to swim out for 4h at 37C from a centrifuged pellet (2,500 rpm/10 min/room temperature). Trypomastigotes were then collected and counted in a CASY Cell Counter. Trypomastigotes, in supplemented DMEM, were added to H9c2 cultures in a multiplicity of infection of 1 and incubated for 18 h. Cells were washed once with PBS before incubation of the infected H9c2 monolayer with trypsin (Life-Technologies) to detach cells from the flask. Cells were counted in a CASY Cell Counter using a 150 um capillary and their density set at 5 * 10^4 cells per mL in supplemented assay DMEM. Infected H9c2 were dispensed into 384-well poly-lysine coated assay plates at 50uL per well using a Multidrop Combi dispenser. After seeding them, the plates were incubated at 37C, 5% CO2 for 72h. Cultures were then fixed and stained by addition of 50 uL of a solution containing 8% formaldehyde and 4 uM DRAQ5 DNA dye (BioStatus, UK) per well. […] Five images were collected per well for reliable statistical analysis. Automated image analysis was performed with a script developed on Acapella High Content Imaging and Analysis Software (PerkinElmer). Output: number of amastigotes per cell as infection level measurement.; assay type: functional, organism-based, Rattus norvegicus; conditions: H9c2, 4 h
Leishmania donovani [6] = assay: as §1, with “Amastigotes/Macrophages.” for “Infected Macrophages.”, “Average number” for “Percent”, “amastigotes per” for “infected”, “cell” for “cells”; assay type: functional, organism-based, Homo sapiens; conditions: THP-1
[7] = test system: Trypanosoma brucei brucei; assay: GSK_TCAKS: pIC50 Trypanosoma brucei viability assay using luminiscence. Assay plates (1536-well) were prepared. T. brucei cultures were harvested and counted in a CASY cell counter. A parasite suspension was prepared at a final concentration of 5 * 10^4 cells/mL in complete HMI9 medium and 6uL was dispensed to all wells containing compounds using a Multidrop Combi dispenser. 6uL of HMI9 media with 0.4% DMSO were dispensed to control columns. Plates were incubated for 24 h at 37C, 5% CO2 then tempered for 10 min at room temperature. ATP content was quantified by adding 4 uL of CellTiter-Glo Reagent (Promega) according to the manufacturer's instructions. Luminescence was measured using a ViewLux.; assay type: functional, organism-based; conditions: Lister 427, CASY
[8] = test system: Trypanosoma brucei brucei; assay: GSK_TCAKS: pIC50 Trypanosoma brucei viability assay using fluorescence intensity. Assay plates (1536-well) were prepared by dispensing 25nL of compound solution per well using an Echo acoustic dispenser (Labcyte).; assay type: functional, organism-based; conditions: Lister 427, 2 h
Trypanosoma cruzi [9] = assay: GSK_TCAKS: pIC50 Trypanosoma cruzi viability assay using beta-GAL activity. This assay was run at single shot at 5uM compound concentration per well. The biological reagents consisted of NIH-3T3 host cells and trypomastigotes parasitic cells; both cell types were set to a 3.3 * 10^5 cells/mL dilution in assay DMEM by means of a CASY cell counter device using a 60um capillary. 6 uL of the mixture were dispensed per well (about 1 * 10^3 host-cells and 1 * 10^3 parasites) with a Multidrop Combi dispenser. […] In all wells, the percentage of DMSO never exceeded 0.5%. Plates incubated for four days at 37C, 5% CO2. The substrate used for the assay fluorescence intensity (FLINT) readout was resorufin-beta-D-galactopiranoside (Sigma-Aldrich) at 5uM per well. It was diluted in PBS supplemented with the soft detergent Igepal (Fluka).; assay type: functional, organism-based, Mus musculus; conditions: Tulahuen, NIH3T3
Leishmania donovani [10] = assay: as §1, with “THP-1 Host” for “Infected”, “THP-1 cell count” for “Percent of infected macrophage cells”; assay type: functional, organism-based, Homo sapiens
Leishmania donovani [11] = assay: GSK_TCAKS: pIC50 Leishmania donovani viability assay using fluorescence intensity. Assay plates (1536-well) were prepared by adding 30nL per well of compound. For single shot assay, the final compound concentration was 5uM. […] Briefly, eGFP LdBOB axenic amastigotes were harvested, fixed and counted in a CASY cell counter (Roche-Applied Science). A final concentration of 1.5 * 10^5 cells per well were prepared in amastigote media containing 500 U/mL penicillin/streptomycin (Invitrogen) and 6uL was dispensed to each experimental well using a Multidrop Combi dispenser (Thermo Scientific). 6uL of assay media was dispensed to control columns used as reference for 100% compound response. Following incubation for 72 h at 37C, 5% CO2, 2 uL of resazurin was added to each well at a final concentration of 0.5 mM in phosphate buffered saline (PBS) with IGEPAL (Sigma-Aldrich), 0.05% (v/v).; assay type: functional, organism-based
Trypanosoma cruzi [12] = assay: as §2, with “H2C9” for “Trypanosoma cruzi”, “H9c2 Host Cardiomyocytes.” for “Infected Cells.”, “Number” for “percentage”, “H9c2 Host Cardiomyocytes nuclei to determine drug-related cytotoxicity.” for “infected cells per well as a second infection marker.”; assay type: functional, organism-based, Rattus norvegicus; conditions: H9c2, 4 h

Chain of Sterol 14-alpha demethylase (Q7Z1V1 whole entry): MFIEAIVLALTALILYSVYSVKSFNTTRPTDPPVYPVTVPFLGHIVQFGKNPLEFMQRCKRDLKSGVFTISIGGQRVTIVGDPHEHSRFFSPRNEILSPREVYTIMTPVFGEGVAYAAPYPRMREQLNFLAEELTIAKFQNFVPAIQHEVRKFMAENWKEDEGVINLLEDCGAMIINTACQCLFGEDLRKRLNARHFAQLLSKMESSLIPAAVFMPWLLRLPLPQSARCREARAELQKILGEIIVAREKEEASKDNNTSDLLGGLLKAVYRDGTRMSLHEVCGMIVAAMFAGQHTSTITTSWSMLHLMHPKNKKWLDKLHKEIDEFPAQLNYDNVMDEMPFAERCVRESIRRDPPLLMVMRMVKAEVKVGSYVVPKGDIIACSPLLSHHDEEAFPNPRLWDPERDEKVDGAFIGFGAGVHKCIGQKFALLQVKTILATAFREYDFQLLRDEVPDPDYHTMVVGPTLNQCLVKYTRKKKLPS

Row | Compound | IC50 at 48 h [1] | IC50 [2] | IC50 (Leishmania donovani [3]) | IC50 (Trypanosoma cruzi [4]) | IC50 (Trypanosoma cruzi [5]) | IC50 (Leishmania donovani [6]) | IC50 [7] | IC50 [8] | IC50 (Trypanosoma cruzi [9]) | IC50 (Leishmania donovani [10]) | IC50 (Leishmania donovani [11]) | IC50 (Trypanosoma cruzi [12])
1 | CNS(=O)(=O)c1ccccc1Nc1nc(Nc2ccnn2C)ncc1Cl | 50.1 µM | 31.6 µM | 0.631 µM | 1 µM | 0.631 µM | 0.398 µM | 0.1 µM | 0.0631 µM | 0.398 µM | – | – | –
2 | Cc1nn(-c2nc3ccccc3[nH]2)c2c1C(c1ccc(O)cc1)CC(=O)N2 (centres undefined) | 25.1 µM | 25.1 µM | 1 µM | – | – | 0.501 µM | – | – | – | 6.31 µM | 0.794 µM | –
3 | C=CC[C@@H]1CC=C[C@@H](C)N1C(=O)CCc1nnc(-c2ccc3c(c2)OCO3)o1 | > 100 µM | 39.8 µM | 7.94 µM | – | – | 3.16 µM | – | – | – | 12.6 µM | 6.31 µM | –
4 | O=C1c2cnc(N3CCCC3)nc2CN1c1ccc2c(c1)OCO2 | > 100 µM | > 100 µM | 10 µM | – | – | 6.31 µM | – | – | 2.51 µM | > 50.1 µM | 6.31 µM | –
5 | COc1ccccc1C(=O)Nc1nnc(-c2ccc3c(c2)OCO3)s1 | > 100 µM | > 100 µM | 1 µM | – | – | 0.631 µM | – | – | 2.51 µM | 15.8 µM | 1 µM | –
6 | CS(=O)(=O)c1ccc(Nc2nccc(-c3cnn4ncccc34)n2)cc1 | 15.8 µM | 15.8 µM | 2 µM | 25.1 µM | 1 µM | 1 µM | 0.2 µM | 0.158 µM | 2 µM | – | 0.794 µM | 5.01 µM
7 | N=C(N)Nc1nc(-c2ccc(NC(=N)NCCN3CCCC3)cc2)cs1 | > 100 µM | – | > 50.1 µM | > 50.1 µM | > 50.1 µM | > 50.1 µM | 0.1 µM | 0.0398 µM | > 50.1 µM | > 50.1 µM | > 50.1 µM | > 50.1 µM
8 | [O-][s+]1nc(NCCCN(Cc2ccc(F)cc2)c2ccccn2)c(NCc2ccncc2)n1 (centres undefined) | 79.4 µM | – | > 50.1 µM | 50.1 µM | 39.8 µM | 25.1 µM | 0.501 µM | 0.316 µM | 31.6 µM | 25.1 µM | > 50.1 µM | > 50.1 µM
9 | Oc1c(-c2nnc(Cc3ccc(F)cc3)[nH]2)ncc2cccnc12 | 25.1 µM | > 100 µM | 1 µM | – | – | 1 µM | – | – | 0.158 µM | 20 µM | 0.126 µM | –
10 | Oc1c(-c2nnc(Cc3ccc(Cl)cc3)[nH]2)ncc2cccnc12 | 39.8 µM | 31.6 µM | 1.26 µM | – | – | 1 µM | – | – | – | 20 µM | 0.251 µM | –
11 | COc1ccc(Cc2nnc(-c3ncc4cccnc4c3O)[nH]2)cc1OC | 50.1 µM | > 100 µM | 3.16 µM | – | – | 2.51 µM | – | – | 1.26 µM | 20 µM | 0.316 µM | –
12 | c1ccc(-c2nc(NC3CCCCC3)cc(C3CC3)n2)nc1 | 39.8 µM | > 100 µM | 3.98 µM | – | – | 3.16 µM | – | – | – | 20 µM | 0.794 µM | –
